Measured values reported in ChEMBL document CHEMBL5625228, “Design, synthesis, and bioactivity evaluation of novel amide/sulfonamide derivatives as potential anti-inflammatory agents against acute lung injury and ulcerative colitis” (Eur J Med Chem, 2023).
Calls of active or inactive are those of the source. The rule behind the calls is not given here.

Key:
Mus musculus [1] = assay: Antiinflammatory activity against DSS-induced acute colitis C57BL/6 mouse model assessed as increase in colon length at 5 mg/kg, po pretreated with DSS for 7 days followed by compound addition for every day for 10 days; format: functional, organism-based; conditions: time 10.0 day
J774.A1 [2] = assay: Antiinflammatory activity against mouse J774.A1 cells assessed as inhibition of LPS-induced IL-6 production pretreated with compound for 30 mins followed by LPS induction and measured after 24 hrs by ELISA analysis; format: functional; conditions: time 1470 min; 24.5 h
J774.A1 [3] = assay: Antiinflammatory activity against mouse J774.A1 cells assessed as inhibition of LPS-induced TNF-alpha production pretreated with compound for 30 mins followed by LPS induction and measured after 24 hrs by ELISA analysis; format: functional; conditions: time 1470 min; 24.5 h
J774.A1 [4] = assay: Antiinflammatory activity against mouse J774.A1 cells assessed as inhibition of LPS-induced IL-6 release preincubated with compound for 30 mins followed by LPS-induction and measured after 24 hrs by ELISA analysis; format: functional, cell-based
J774.A1 [5] = assay: Antiinflammatory activity against mouse J774.A1 cells assessed as inhibition of LPS-induced TNF-alpha release preincubated with compound for 30 mins followed by LPS-induction and measured after 24 hrs by ELISA analysis; format: functional, cell-based
J774.A1 [6] = assay: Antiinflammatory activity against LPS-induced mouse J774.A1 cells assessed as downregulation of TNF-alpha mRNA level preincubated with compound for 30 mins followed by LPS-induction and measured after 6 hrs by qPCR analysis; format: functional, cell-based; conditions: time 390.0 min
J774.A1 [7] = assay: Antiinflammatory activity against LPS-induced mouse J774.A1 cells assessed as increase in IkappaB-alpha level at 20 uM incubated for 2 hrs by Western blot analysis; format: functional, cell-based
J774.A1 [8] = assay: Antiinflammatory activity against LPS-induced mouse J774.A1 cells assessed as downregulation of p65 level at 20 uM incubated for 2 hrs by Western blot analysis; format: functional, cell-based
Mus musculus [9] = assay: Antiinflammatory activity against LPS-induced acute lung injury C57BL/6 mouse model assessed as reduction in protein concentration in BALF at 20 mg/kg, IG preincubated with compound for 30 mins followed by LPS-induction and measured after 6 hrs; format: functional, organism-based; conditions: time 390.0 min
Mus musculus [10] = assay: Antiinflammatory activity against LPS-induced acute lung injury C57BL/6 mouse model assessed as inflammatory infiltration in lung at 20 mg/kg, IG preincubated with compound for 30 mins followed by LPS-induction and measured after 6 hrs by H and E staining based analysis; format: functional, organism-based; conditions: time 390.0 min
Mus musculus [11] = assay: Antiinflammatory activity against LPS-induced acute lung injury C57BL/6 mouse model assessed as alveolar septa thickness in lung at 20 mg/kg, IG preincubated with compound for 30 mins followed by LPS-induction and measured after 6 hrs by H and E staining based analysis; format: functional, organism-based; conditions: time 390.0 min
Mus musculus [12] = assay: Antiinflammatory activity against LPS-induced acute lung injury C57BL/6 mouse model assessed as pulmonary congestion in lung at 20 mg/kg, IG preincubated with compound for 30 mins followed by LPS-induction and measured after 6 hrs by H and E staining based analysis; format: functional, organism-based; conditions: time 390.0 min
Mus musculus [13] = assay: Antiinflammatory activity against LPS-induced acute lung injury C57BL/6 mouse model assessed as lung tissue destruction at 20 mg/kg, IG preincubated with compound for 30 mins followed by LPS-induction and measured after 6 hrs by H and E staining based analysis; format: functional, organism-based; conditions: time 390.0 min
Mus musculus [14] = assay: Antiinflammatory activity against LPS-induced acute lung injury C57BL/6 mouse model assessed as suppression of TNF-alpha level in BALF at 20 mg/kg, IG preincubated with compound for 30 mins followed by LPS-induction and measured after 6 hrs by ELISA analysis; format: functional, organism-based; conditions: time 390.0 min
Mus musculus [15] = assay: Antiinflammatory activity against LPS-induced acute lung injury C57BL/6 mouse model assessed as suppression of TNF-alpha level in serum at 20 mg/kg, IG preincubated with compound for 30 mins followed by LPS-induction and measured after 6 hrs by ELISA analysis; format: functional, organism-based; conditions: time 390.0 min
Mus musculus [16] = assay: Antiinflammatory activity against LPS-induced acute lung injury C57BL/6 mouse model assessed as suppression of IL-6 level in serum at 20 mg/kg, IG preincubated with compound for 30 mins followed by LPS-induction and measured after 6 hrs by ELISA analysis; format: functional, organism-based; conditions: time 390.0 min
Mus musculus [17] = assay: Antiinflammatory activity against LPS-induced acute lung injury C57BL/6 mouse model assessed as suppression of IL-6 level in BALF at 20 mg/kg, IG preincubated with compound for 30 mins followed by LPS-induction and measured after 6 hrs by ELISA analysis; format: functional, organism-based; conditions: time 390.0 min
Mus musculus [18] = assay: Antiinflammatory activity against LPS-induced acute lung injury C57BL/6 mouse model assessed as decrease in IL-6 mRNA level in lung at 20 mg/kg, IG preincubated with compound for 30 mins followed by LPS-induction and measured after 6 hrs by qPCR analysis; format: functional, organism-based; conditions: time 390.0 min
Mus musculus [19] = assay: Antiinflammatory activity against DSS-induced acute colitis C57BL/6 mouse model assessed as reduction in crypt necrosis in colon at 5 mg/kg, po pretreated with DSS for 7 days followed by compound addition for every day for 10 days by H and E staining based analysis; format: functional, organism-based; conditions: time 10.0 day
Mus musculus [20] = assay: Antiinflammatory activity against DSS-induced acute colitis C57BL/6 mouse model assessed as reduction in inflammatory infiltration in colon at 5 mg/kg, po pretreated with DSS for 7 days followed by compound addition for every day for 10 days by H and E staining based analysis; format: functional, organism-based; conditions: time 10.0 day
Mus musculus [21] = assay: Antiinflammatory activity against DSS-induced acute colitis C57BL/6 mouse model assessed as attenuation of white pulp at 5 mg/kg, po pretreated with DSS for 7 days followed by compound addition for every day for 10 days by H and E staining based analysis; format: functional, organism-based; conditions: time 10.0 day
[22] = Half life in Sprague-Dawley rat at 10 mg/kg, po measured upto 24 hrs by LC-MS analysis; format: ADME, organism-based; conditions: in vivo
[23] = Tmax in Sprague-Dawley rat at 10 mg/kg, po measured upto 24 hrs by LC-MS analysis; format: ADME, organism-based; conditions: in vivo
[24] = Cmax in Sprague-Dawley rat at 1 mg/kg, iv measured upto 24 hrs by LC-MS analysis; format: ADME, organism-based; conditions: in vivo
[25] = Cmax in Sprague-Dawley rat at 10 mg/kg, po measured upto 24 hrs by LC-MS analysis; format: ADME, organism-based; conditions: in vivo
[26] = AUC (0 to t) in Sprague-Dawley rat at 1 mg/kg, iv measured upto 24 hrs by LC-MS analysis; format: ADME, organism-based; conditions: in vivo
[27] = AUC (0 to t) in Sprague-Dawley rat at 10 mg/kg, po measured upto 24 hrs by LC-MS analysis; format: ADME, organism-based; conditions: in vivo
[28] = AUC (0 to infinity) in Sprague-Dawley rat at 1 mg/kg, iv measured upto 24 hrs by LC-MS analysis; format: ADME, organism-based; conditions: in vivo
[29] = AUC (0 to infinity) in Sprague-Dawley rat at 10 mg/kg, po measured upto 24 hrs by LC-MS analysis; format: ADME, organism-based; conditions: in vivo
[30] = Apparent volume of distribution in Sprague-Dawley rat at 1 mg/kg, iv measured upto 24 hrs by LC-MS analysis; format: ADME, organism-based; conditions: in vivo, read-out: Vz
[31] = Apparent volume of distribution in Sprague-Dawley rat at 10 mg/kg, po measured upto 24 hrs by LC-MS analysis; format: ADME, organism-based; conditions: in vivo
[32] = Clearance in Sprague-Dawley rat at 1 mg/kg, iv measured upto 24 hrs by LC-MS analysis; format: ADME, organism-based; conditions: in vivo
[33] = Clearance in Sprague-Dawley rat at 10 mg/kg, po measured upto 24 hrs by LC-MS analysis; format: ADME, organism-based; conditions: in vivo

O=[N+]([O-])c1ccc(N2CCN(c3ccc(S(=O)(=O)NCc4ccccn4)cc3[N+](=O)[O-])CC2)cc1
Activity (Mus musculus [1]): Active | inhibition (INH) (J774.A1 [2]): 85.92% | inhibition (INH) (J774.A1 [3]): 70.09% | IC50 (J774.A1 [4]): 0.61 µM | IC50 (J774.A1 [5]): 4.34 µM | Activity (J774.A1 [6]): Active | Activity (J774.A1 [7]): Active | Activity (J774.A1 [8]): Active | Activity (Mus musculus [9]): Active | Activity (Mus musculus [10]): Active | Activity (Mus musculus [11]): Active | Activity (Mus musculus [12]): Active | Activity (Mus musculus [13]): Active | Activity (Mus musculus [14]): Active | Activity (Mus musculus [15]): Active | Activity (Mus musculus [16]): Active | Activity (Mus musculus [17]): Active | Activity (Mus musculus [18]): Active | Activity (Mus musculus [19]): Active | Activity (Mus musculus [20]): Active | Activity (Mus musculus [21]): Active | half-life [22]: 7.1 h | Tmax [23]: 2.8 h | Cmax [24]: 1320 ng/mL | Cmax [25]: 168 ng/mL | AUC(0-t) at 24 h [26]: 1110 ng·h/mL | AUC(0-t) at 24 h [27]: 1060 ng·h/mL | AUC(0-inf) [28]: 1120 ng·h/mL | AUC [29]: 1183.5 ng·h/mL | Vd [30]: 2.3 L/kg | Vz [31]: 80 L/kg | clearance [32]: 15 mL/min/kg | clearance [33]: 150 mL/min/kg
